Laboratory results: ChEMBL document CHEMBL5729071, “Cyano thienotriazolodiazepines and uses thereof” (2022)

Molecular target: Bromodomain-containing protein 4 (Homo sapiens, UniProt O60885)
Test: Assays were performed as described previously with minor modifications from the manufacturer's protocol (PerkinElmer, USA). All reagents were diluted in 50 mM HEPES, 100 mM NaCl, 0.1% BSA, pH 7.4 supplemented with 0.05% CHAPS and allowed to equilibrate to room temperature prior to addition to plates. […] Plates were sealed and incubated for a further 30 minutes, before the addition of 4 μl of streptavidin-coated donor beads (25 μg/ml) and 4 μl nickel chelate acceptor beads (25 μg/ml) under low light conditions. Plates were foil-sealed to protect from light, incubated at room temperature for 60 minutes and read on a PHERAstar FS plate reader (BMG Labtech, Germany) using an AlphaScreen 680 excitation/570 emission filter set. IC50 values were calculated in Prism 5 (GraphPad Software, USA) after normalization against corresponding DMSO controls and are given as the final concentration of compound in the 20 μl reaction volume.

## Cc1sc2c(c1C)C(c1ccc(C#N)cc1)=N[C@@H](CC(=O)OC(C)(C)C)c1nnc(C)n1-2
  IC50: 0.097 µM
